Activity calls are given as the source filed them. The calls are words filed in the database; no cut-off is given here.
What was measured:
[1] = AUC (0 to t) in mouse at 5.5 mg/kg, ip by HPLC/MS/MS analysis; type: ADME, organism-based; settings: in vivo
[2] = Half life in mouse at 5.5 mg/kg, ip by HPLC/MS/MS analysis; type: ADME, organism-based; settings: in vivo
[3] = Dose normalized AUC (0 to infinity) in mouse at 5.5 mg/kg, ip by HPLC/MS/MS analysis; type: ADME, organism-based; settings: in vivo
[4] = Inhibition of Cav1.2 (unknown origin); design: species or system Homo sapiens
[5] = Effect on cleaved PARP level in human NCI-H510 cells assessed as relative expression at 100 nM measured after 7 days by Western blot analysis (reference value: 0.24); type: functional, NCI-H510A; settings: time 7 day
NCI-H526 [6] = test: In vivo inhibition of LSD1 in human NCI-H526 cells xenografted in nude mouse assessed as change in KIAA1644 gene expression measured after 24 hrs post single administration by qRT-PCR analysis; type: functional, organism-based; settings: dose 0.06-135 mg/kg
NCI-H526 [7] = test: Upregulation of LSD1 signal enrichment at typical enhancers in human NCI-H526 cells at 1 uM; type: functional, cell-based
SHP77 = test: Antitumor activity against human SHP77 cells xenografted in nude mouse assessed as mean tumor volume at […] mg/kg, po administered daily measured twice weekly (reference value: 2193 +/- 293 mm3); type: functional; settings: 1.25 mg/kg
NCI-H510A = test: Effect on NCAM gene expression in human NCI-H510A cells at 1 uM measured after 4 days by qRT-PCR analysis; type: functional, cell-based; settings: time 4.0 day
[8] = Toxicity in dog assessed as declining clinical condition measured for 28 days; design: species or system Canis lupus familiaris; settings: in vivo, 672 h, time 28 day
[9] = Effect on cleaved PARP level in human NCI-H2171 cells assessed as fold change at 100 nM measured after 14 days by Western blot analysis (reference value: 1.00); type: functional; settings: time 14 day
[10] = Toxicity in dog assessed as myelofibrosis measured for 28 days; design: species or system Canis lupus familiaris; settings: in vivo, 672 h, time 28 day
[11] = molecular target: Lysine-specific histone demethylase 1A (Homo sapiens, UniProt O60341); settings: NCI-H526, dose 1-10000 nM, time 1-7 day
Description: Inhibition of LSD1 in human NCI-H526 cells assessed as change in IGFBP2 gene expression at 1 to 10000 nM by qRT-PCR analysis

[12] = Toxicity in dog assessed as congestion in lymphoid organs measured for 28 days; design: species or system Canis lupus familiaris; settings: in vivo, 672 h, time 28 day
[13] = Effect on cleaved PARP level in human NCI-H146 cells assessed as relative expression at 1000 nM measured after 10 days by Western blot analysis (reference value: 0.27); type: functional; settings: time 10 day
[14] = Effect on cleaved PARP level in human NCI-H146 cells assessed as fold change at 100 nM measured after 14 days by Western blot analysis (reference value: 1.00); type: functional; settings: time 14 day
[15] = Effect on cleaved PARP level in human NCI-H526 cells assessed as fold change at 10 nM measured after 7 days by Western blot analysis (reference value: 1.00); type: functional; settings: time 7 day
[16] = Effect on cleaved PARP level in human NCI-H69 cells assessed as relative expression at 1000 nM measured after 7 days by Western blot analysis (reference value: 0.02); type: functional; settings: time 7 day
[17] = Antitumor activity against human PDX L44 cells xenografted in mouse assessed as tumor growth inhibition at 1.5 mg/kg administered daily measured for 30 days relative to control; type: functional; settings: PDX LX44, 720 h, time 30 day, read-out: TGI
[18] = Effect on cleaved PARP level in human NCI-H1417 cells assessed as fold change at 1000 nM measured after 14 days by Western blot analysis (reference value: 1.00); type: functional; settings: time 14 day
NCI-H1417 [19] = test: In vivo inhibition of LSD1 in human NCI-H1417 cells xenografted in nude mouse assessed as change in ZEB1 gene expression measured after 24 hrs post single administration by qRT-PCR analysis; type: functional, organism-based; settings: dose 0.02-135 mg/kg
[20] = Effect on cleaved PARP level in human NCI-H510 cells assessed as relative expression at 10 nM measured after 14 days by Western blot analysis (reference value: 0.01); type: functional, NCI-H510A; settings: time 14 day
NCI-H1417 [21] = test: Antitumor activity against human NCI-H1417 cells xenografted in nude mouse assessed as tumor growth inhibition at 1.5 mg/kg, po administered daily measured twice weekly relative to control; type: functional; settings: read-out: TGI
[22] = Effect on cleaved PARP level in human NCI-H1417 cells assessed as fold change at 10 nM measured after 10 days by Western blot analysis (reference value: 1.00); type: functional; settings: time 10 day
[23] = Dose normalized AUC (0 to last) in mouse blood at 5 mg/kg, po by HPLC/MS/MS analysis; type: ADME, organism-based; settings: in vivo
[24] = Effect on cleaved PARP level in human NCI-H1417 cells assessed as fold change at 100 nM measured after 14 days by Western blot analysis (reference value: 1.00); type: functional; settings: time 14 day
[25] = Effect on cleaved PARP level in human NCI-H146 cells assessed as fold change at 10 nM measured after 14 days by Western blot analysis (reference value: 1.00); type: functional; settings: time 14 day
[26] = Effect on cleaved PARP level in human NCI-H524 cells assessed as relative expression at 10 nM measured after 10 days by Western blot analysis (reference value: 0.95); type: functional; settings: time 10 day
[27] = Effect on cleaved PARP level in human NCI-H2171 cells assessed as fold change at 1000 nM measured after 14 days by Western blot analysis (reference value: 1.00); type: functional; settings: time 14 day
[28] = Toxicity in dog assessed as suppression of erythroid maturation in bone marrow measured for 28 days; design: species or system Canis lupus familiaris; settings: in vivo, 672 h, time 28 day
[29] = Effect on cleaved PARP level in human NCI-H526 cells assessed as fold change at 10 nM measured after 14 days by Western blot analysis (reference value: 1.00); type: functional; settings: time 14 day
[30] = Effect on cleaved PARP level in human COLO-668 cells assessed as fold change at 1000 nM measured after 7 days by Western blot analysis (reference value: 1.00); type: functional; settings: time 7 day
[31] = Effect on cleaved PARP level in human NCI-H2171 cells assessed as relative expression at 1000 nM measured after 10 days by Western blot analysis (reference value: 0.02); type: functional; settings: time 10 day
[32] = Effect on cleaved PARP level in human COLO-668 cells assessed as relative expression at 10 nM measured after 14 days by Western blot analysis (reference value: 3.50); type: functional; settings: time 14 day
[33] = Toxicity in dog assessed as thrombocytopenia measured for 28 days; design: species or system Canis lupus familiaris; settings: in vivo, 672 h, time 28 day
[34] = AUC (0 to infinity) in mouse blood at 5 mg/kg, po by HPLC/MS/MS analysis; type: ADME, organism-based
[35] = Effect on cleaved PARP level in human NCI-H2171 cells assessed as relative expression at 100 nM measured after 14 days by Western blot analysis (reference value: 0.01); type: functional; settings: time 14 day
NCI-H526 [36] = test: In vivo inhibition of LSD1 in human NCI-H526 cells xenografted in nude mouse assessed as change in IGFBP2 gene expression measured after 24 hrs post single administration by qRT-PCR analysis; type: functional, organism-based; settings: dose 0.06-135 mg/kg
[37] = Effect on cleaved PARP level in human NCI-H526 cells assessed as relative expression at 1000 nM measured after 14 days by Western blot analysis (reference value: 0.66); type: functional; settings: time 14 day

c1ccc([C@@H]2C[C@H]2NC2CCNCC2)cc1
AUC(0-t) [1]: 871 ng·h/mL
half-life [2]: 3.6 h
AUC/dose [3]: 172 kg·ng·h/mL/mg
IC50 [4]: > 100 µM

O=C(O)c1ccc(CN2CCC(CN[C@@H]3C[C@H]3c3ccccc3)CC2)cc1 [GSK2879552]
Activity [5]: 0.43
inhibition (NCI-H526 [6]): Dose-Dependent Effect
Activity (NCI-H526 [7]): Active
Activity (SHP77): 1845 mm3
Activity (NCI-H510A): inactive
Activity [8]: Toxic
fold change (FC) [9]: 1.8
Activity [10]: Toxic
inhibition [11]: Tde
Activity [12]: Toxic
Activity [13]: 0.24
fold change (FC) [14]: 0.45
fold change (FC) [15]: 0.85
Activity [16]: 0.04
inhibition in vivo at 1.5 mg/kg [17]: 69%
fold change (FC) [18]: 1.1
inhibition (NCI-H1417 [19]): Dose-Dependent Effect
Activity [20]: 0.32
inhibition in vivo at 1.5 mg/kg (NCI-H1417 [21]): 83%
fold change (FC) [22]: 1.44
AUClast/dose [23]: 171 ng·h/mL/mg/kg
fold change (FC) [24]: 0.83
fold change (FC) [25]: 0.64
Activity [26]: 0.77
fold change (FC) [27]: 2.4
Activity [28]: Toxic
fold change (FC) [29]: 0.73
fold change (FC) [30]: 0.95
Activity [31]: 0.02
Activity [32]: 1.45
Activity [33]: Toxic
AUC(0-inf) [34]: 903 ng·h/mL
Activity [35]: 0.02
inhibition (NCI-H526 [36]): Dose-Dependent Effect
Activity [37]: 0.9

From ChEMBL document CHEMBL5705903, “A DNA Hypomethylation Signature Predicts Antitumor Activity of LSD1 Inhibitors in SCLC” (Cancer Cell, 2015)
